# Values quoted from earlier work as cited in US20240350480A1, “STABLE PHARMACEUTICAL COMPOSITION OF METHYLNALTREXONE FOR AN ORAL ADMINISTRATION” (Lupin Limited, priority 2023, published 2024).
# Conditions: oral administration
compound,measurement,value
C[N+]1(CC2CC2)CC[C@]23c4c5ccc(O)c4O[C@H]2C(=O)CC[C@@]3(O)[C@H]1C5.[Br-] (stereo partly shown) [methylnaltrexone],Methylnaltrexone absorbed into the bloodstream,less than 5%
